Laboratory results from patent publication US20240383904A1, “HETEROCYCLIC COMPOUNDS” (Hoffmann-La Roche Inc., priority 2021, published 2024).

Target: T1, MAGL (Homo sapiens, UniProt Q99685)
T1 sequence (Q99685 1-303): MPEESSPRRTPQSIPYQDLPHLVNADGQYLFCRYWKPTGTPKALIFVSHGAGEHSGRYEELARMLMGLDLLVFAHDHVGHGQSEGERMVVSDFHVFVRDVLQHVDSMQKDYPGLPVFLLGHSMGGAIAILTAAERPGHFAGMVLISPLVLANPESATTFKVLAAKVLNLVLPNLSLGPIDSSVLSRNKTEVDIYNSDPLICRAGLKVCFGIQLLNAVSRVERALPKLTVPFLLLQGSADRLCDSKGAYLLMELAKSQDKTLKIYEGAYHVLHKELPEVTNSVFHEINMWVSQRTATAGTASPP
Experiment: 2-AG assay: MAGL inhibitory activity by hydrolysis of 2-arachidonoylglycerol to arachidonic acid, followed by mass spectrometry
Format: biochemical
Settings: 15 min preincubation, 30 min reaction at RT, 8 μM 2-arachidonoylglycerol

Row | SMILES | IC50
1 | O=C1CCC2(CN(C(=O)N3CC4(CCC(Cc5cnc(C(F)(F)F)cn5)CC4)C3)C2)N1 [Example 102, 2-[7-[[5-(trifluoromethyl)pyrazin-2-yl]methyl]-2-azaspiro[3.5]nonane-2-carbonyl]-2,5-diazaspiro[3.4]octan-6-one] | 10.8 nM
2 | O=C1CCC2(CN(C(=O)N3CC4(CC(Cc5nc(C(F)(F)F)co5)C4)C3)C2)N1 [Example 58, 2-[6-[[4-(trifluoromethyl)oxazol-2-yl]methyl]-2-azaspiro[3.3]heptane-2-carbonyl]-2,5-diazaspiro[3.4]octan-6-one] | 17.3 nM
3 | O=C1NCC2(CN(C(=O)N3CC4(CC(Cc5ccc(C(F)(F)F)nc5)C4)C3)C2)N1 [Example 42, 2-[6-[[6-(trifluoromethyl)-3-pyridyl]methyl]-2-azaspiro[3.3]heptane-2-carbonyl]-2,5,7-triazaspiro[3.4]octan-6-one] | 53.4 nM
4 | O=C1CCC2(CN(C(=O)N3CC4(CC(Cc5cnn(CC(F)(F)F)c5)C4)C3)C2)N1 [Example 248, 2-[6-[[1-(2,2,2-trifluoroethyl)pyrazol-4-yl]methyl]-2-azaspiro[3.3]heptane-2-carbonyl]-2,5-diazaspiro[3.4]octan-6-one] | 32.8 nM
5 | O=C1CCCC2(CN(C(=O)N3CC4(CC(Cc5ccc(S(=O)(=O)C(F)(F)F)cn5)C4)C3)C2)N1 [Example 263, 2-[6-[[5-(trifluoromethylsulfonyl)-2-pyridyl]methyl]-2-azaspiro[3.3]heptane-2-carbonyl]-2,5-diazaspiro[3.5]nonan-6-one] | 183 nM
6 | O=C1NC2(CO1)CN(C(=O)N1CC3(CC(N4CC(C(F)(F)F)C4)C3)C1)C2 [Example 80, 2-[6-[3-(trifluoromethyl)azetidin-1-y1]-2-azaspiro[3.3]heptane-2-carbonyl]-7-oxa-2,5-diazaspiro[3.4]octan-6-one] | 6.19 nM
7 | Cn1nc(CC2CC3(C2)CN(C(=O)N2CC4(COCC(=O)N4)C2)C3)cc1C(F)(F)F [Example 367, 2-[6-[[1-methyl-5-(trifluoromethyl)pyrazol-3-yl]methyl]-2-azaspiro[3.3]heptane-2-carbonyl]-8-oxa-2,5-diazaspiro[3.5]nonan-6-one] | 2.88 nM
8 | O=C1CCC2(CN(C(=O)N3CC4(CCN(Cc5ncc(C(F)F)s5)CC4)C3)C2)N1 [Example 348, 2-[7-[[5-(difluoromethyl)thiazol-2-yl]methyl]-2,7-diazaspiro[3.5]nonane-2-carbonyl]-2,5-diazaspiro[3.4]octan-6-one] | 90.9 nM
9 | N=S(=O)(c1cccc(CC2CC3(C2)CN(C(=O)N2CC4(CCC(=O)N4)C2)C3)c1)C(F)(F)F (centres unmarked) [Example 1] | 0.91 nM
10 | CS(=O)(=O)c1ccc(Cl)cc1OC1CCC2(CC1)CN(C(=O)N1CC3(COC(=O)N3)C1)C2 [Example 122, 2-[7-(5-chloro-2-mesyl-phenoxy)-2-azaspiro[3.5]nonane-2-carobnyl]-7-oxa-2,5-diazaspiro[3.4]octan-6-one] | 4.33 nM
11 | O=C1CCC2(CN(C(=O)N3CC4(CC(Oc5ccc(F)cn5)C4)C3)C2)N1 [Example 309, 2-[6-[(5-fluoro-2-pyridyl)oxy]-2-azaspiro[3.3]heptane-2-carbonyl]-2,5-diazaspiro[3.4]octan-6-one] | 94.9 nM
12 | O=C1NC2(CO1)CN(C(=O)N1CC3(CC(Cn4cc(C(F)(F)F)cn4)C3)C1)C2 [Example 53, 2-[6-[[4-(trifluoromethyl)pyrazol-1-y1]methyl]-2-azaspiro[3.3]heptane-2-carbonyl]-7-oxa-2,5-diazaspiro[3.4]octan-6-one] | 0.44 nM
13 | O=C1COCC2(CN(C(=O)N3CC4(CC(Cn5ccc(C(F)(F)F)n5)C4)C3)C2)N1 [Example 239, 2-[6-[[3-(trifluoromethyl)pyrazol-1-yl]methyl]-2-azaspiro[3.3]heptane-2-carbonyl]-8-oxa-2,5-diazaspiro[3.5]nonan-6-one] | 52.8 nM
14 | O=C1CCC2(CN(C(=O)N3CC4(CC(Cc5nsc(C(F)(F)F)n5)C4)C3)C2)N1 [Example 349, 2-[6-[[5-(trifluoromethyl)-1,2,4-thiadiazol-3-yl]methyl]-2-azaspiro[3.3]heptane-2-carbonyl]-2,5-diazaspiro[3.4]octan-6-one] | 23 nM
15 | O=C1CCCC2(CN(C(=O)N3CC4(CC(Cc5cc(C(F)F)n[nH]5)C4)C3)C2)N1 [Example 279, 2-[6-[[3-(difluoromethyl)-1H-pyrazol-5-yl]methyl]-2-azaspiro[3.3]heptane-2-carbonyl]-2,5-diazaspiro[3.5]nonan-6-one] | 1030 nM
16 | O=C1NC2(CO1)CN(C(=O)N1CC3(CCN(S(=O)(=O)c4ccc(C(F)(F)F)cc4F)CC3)C1)C2 [Example 189, 2-[7-[2-fluoro-4-(trifluoromethyl)phenyl]sulfonyl-2,7-diazaspiro[3.5]nonane-2-carbonyl]-7-oxa-2,5-diazaspiro[3.4]octan-6-one] | 1.72 nM

Row | SMILES | IC50
17 | O=C1CCC2(CN(C(=O)N3CC4(CC(Cc5nc(C(F)(F)F)cs5)C4)C3)C2)N1 [Example 319, 2-[6-[[4-(trifluoromethyl)thiazol-2-yl]methyl]-2-azaspiro[3.3]heptane-2-carbonyl]-2,5-diazaspiro[3.4]octan-6-one] | 12.4 nM
18 | O=C1CCC2(CN(C(=O)N3CC4(CCN(S(=O)(=O)c5ccc(C(F)(F)F)cc5F)CC4)C3)C2)N1 [Example 194, 2-[7-[2-fluoro-4-(trifluoromethyl)phenyl]sulfonyl-2,7-diazaspiro[3.5]nonane-2-carbonyl]-2,5-diazaspiro[3.4]octan-6-one] | 44.6 nM
19 | O=C1CCC2(CN(C(=O)N3CC4(CC[C@@H](Cc5cccc(S(=O)(=O)C(F)(F)F)c5)C4)C3)C2)N1 [Example 224, 2-[(6S)-6-(3-triflylbenzyl)-2-azaspiro[3.4]octane-2-carbonyl]-2,5-diazaspiro[3.4]octan-6-one] | 0.23 nM
20 | CS(=O)(=O)c1ccc(CC2CCC3(C2)CN(C(=O)N2CC4(COC(=O)N4)C2)C3)cc1C(F)(F)F (centres unmarked) [Example 109, 2-[6-[4-mesyl-3-(trifluoromethyl)benzyl]-2-azaspiro[3.4]octane-2-carbonyl]-7-oxa-2,5-diazaspiro[3.4]octan-6-one] | 0.21 nM
21 | O=C1CCC2(CN(C(=O)N3CC4(CC(Cn5cnc(C(F)(F)F)n5)C4)C3)C2)N1 [Example 66, 2-[6-[[3-(trifluoromethyl)-1,2,4-triazol-1-yl]methyl]-2-carbonyl]-2,5-diazaspiro[3.4]octan-6-one] | 29.9 nM
22 | O=C1CCC2(CN(C(=O)N3CC4(CC(Cn5cc(C(F)(F)F)cn5)C4)C3)C2)N1 [Example 54, 2-[6-[[4-(trifluoromethyl)pyrazol-1-y1]methyl]-2-azaspiro[3.3]heptane-2-carbonyl]-2,5-diazaspiro[3.4]octan-6-one] | 9.37 nM
23 | CS(=O)(=O)c1cccc(CN2CCC3(CC2)CN(C(=O)N2CC4(CCC(=O)N4)C2)C3)c1 [Example 163, 2-[7-(3-mesylbenzyl)-2,7-diazaspiro[3.5]nonane-2-carbonyl]-2,5-diazaspiro[3.4]octan-6-one] | 2.78 nM
24 | N=[S@](=O)(c1cccc(CC2CC3(C2)CN(C(=O)N2CC4(COCC(=O)N4)C2)C3)c1)C(F)(F)F [Example 294, 2-[6-[[3-(trifluoromethylsulfoni-midoyl)phenyl]methyl]-2-azaspiro[3.3]heptane-2-carbonyl]-8-oxa-2,5-diazaspiro[3.5]nonan-6-one] | 2.15 nM
25 | CS(=O)(=O)c1cc(CC2CC3(C2)CN(C(=O)N2CC4(COCC(=O)N4)C2)C3)cc(C(F)(F)F)c1 [Example 238, 2-[6-[[3-methylsulfonyl-5-(trifluoromethyl)phenyl]methyl]-2-azaspiro[3.3]heptane-2-carbonyl]-8-oxa-2,5-diazaspiro[3.5]nonan-6-one] | 16.5 nM
26 | O=C1CCC2(CN(C(=O)N3CC4(CN(Cc5nc(C6CC6)ns5)C4)C3)C2)N1 [Example 340, 2-[6-[(3-cyclopropyl-1,2,4-thiadiazol-5-yl)methyl]-2,6-diazaspiro[3.4]heptane-2-carbonyl]-2,5-diazaspiro[3.4]octan-6-one] | 428 nM
27 | O=C1CCC2(CN(C(=O)N3CC4(CCC(Cc5ccc(C(F)(F)F)cn5)CC4)C3)C2)N1 [Example 60, 2-[7-[[5-(trifluoromethyl)-2-pyridyl]methyl]-2-azaspiro[3.5]nonane-2-carbonyl]-2,5-diazaspiro[3.4]octan-6-one] | 0.74 nM
28 | Cn1cc(C(F)(F)F)c(CC2CC3(C2)CN(C(=O)N2CC4(CCC(=O)N4)C2)C3)n1 [Example 304, 2-[6-[[1-methyl-4-(trifluoromethyl)pyrazol-3-yl]methyl]-2-azaspiro[3.3]heptane-2-carbonyl]-2,5-diazaspiro[3.4]octan-6-one] | 3.73 nM
29 | O=C1NCC2(CN(C(=O)N3CC4(CC(Cc5ccc(C(F)(F)F)cc5F)C4)C3)C2)N1 [Example 25, 2-[6-[2-fluoro-4-(trifluoromethyl)benzyl]-2-azaspiro[3.3]heptane-2-carbonyl]-2,5,7-triazaspiro[3.4]octan-6-one] | 0.05 nM
30 | O=C1NC2(CO1)CN(C(=O)N1CC3(CC(CNC4(C(F)(F)F)CC4)C3)C1)C2 [Example 49, 2-[6-[[[1-(trifluoromethyl)cyclopro-ropyl]amino]methyl]-2-azaspiro[3.3]heptane-2-carbonyl]-7-oxa-2,5-diazaspiro[3.4]octan-6-one] | 0.77 nM
31 | O=C1COCC2(CN(C(=O)N3CC4(CC(Cc5nc(C(F)(F)F)cs5)C4)C3)C2)N1 [Example 369] | 23.1 nM
32 | O=C1CCC2(CN(C(=O)N3CC4(CN(Cc5nc(C(F)(F)F)cs5)C4)C3)C2)N1 [Example 306, 2-[6-[[4-(trifluoromethyl)thiazol-2-yl]methyl]-2,6-diazaspiro[3.3]heptane-2-carbonyl]-2,5-diazaspiro[3.4]octan-6-one] | 287 nM
